Data on 2 molecules can be found in patent US12391919B2, “Culture medium, coating matrix and method for maturing midbrain dopaminergic progenitor cells” (NUWACELL BIOTECHNOLOGIES CO., LTD., priority 2022, dated 2025).

Where a name gives a salt, the structure may show the parent alone.

Assay type in all cases: cell-based, human
In assay [1] the test system is imDAPs. The experiment in a line: qRT-PCR analysis of imDAP-specific markers in expanded imDAPs. The settings on record: Example 3; 3 μM CHIR99021 (vs 0, 1.25 μM) during expansion; 5 days; FIG. 1C. How it is done:
• 1. Individualize and collect cells by either Accutase or TrypLE treatment. • 2. Wash cells with 1 ml PBS and pellet cells at 250×g for 15 sec. • 3. Remove supernatant, add ˜200 μl of 4% PFA, mix and fix for 10 min at RT. • 4. Pellet cells at 350×g for 5 min. • 5. Wash cells by 1 ml of FACS buffer and pellet cells at 350×g for 5 min. • 6. Remove supernatant, add 200 μl/tube of FACS buffer/0.1% TritonX, mix for 10 min at RT. • 7. Wash cells by 1 ml of FACS buffer and pellet cells at 350×g for 5 min. • 8. Remove supernatant, add 200 μl/tube of primary antibody diluted in FACS buffer, mix gently, and incubate for 30 min at RT. • 9. Wash cells by 1 ml of FACS buffer and pellet cells at 350×g for 5 min. • 10. Remove supernatant, and add 200 μl of secondary antibody diluted in FACS buffer, mix gently, and incubate for 30 min at RT. • 11. Wash cells by 1 ml of FACS buffer and pellet cells at 300×g for 5 min. • 12. Remove supernatant, add 200 μl of FACS buffer, and run samples on the flow cytometry. (2) qRT-PCR • 1. For qRT-PCR analysis of mRNA gene expression, RNA should be harvested from at least 2×10^6 cells. • 2. […] Analyze the samples by running a quantitative PCR on the LightCycler 480 instrument using a 40× cycle two-step protocol with a 60° C., 60 sec annealing/elongation step and a 95° C., 30 sec denaturation step. […]

The test system of assay [2] is imDAPs. The experiment in a line: Flow cytometry (FACS) analysis of FOXA2 expression in expanded imDAPs. The following applies: Example 6. How it is done:
• 1. Individualize and collect cells by either Accutase or TrypLE treatment. • 2. Wash cells with 1 ml PBS and pellet cells at 250×g for 15 sec. • 3. Remove supernatant, add ˜200 μl of 4% PFA, mix and fix for 10 min at RT. • 4. Pellet cells at 350×g for 5 min. • 5. Wash cells by 1 ml of FACS buffer and pellet cells at 350×g for 5 min. • 6. Remove supernatant, add 200 μl/tube of FACS buffer/0.1% TritonX, mix for 10 min at RT. • 7. Wash cells by 1 ml of FACS buffer and pellet cells at 350×g for 5 min. • 8. Remove supernatant, add 200 μl/tube of primary antibody diluted in FACS buffer, mix gently, and incubate for 30 min at RT. • 9. Wash cells by 1 ml of FACS buffer and pellet cells at 350×g for 5 min. • 10. Remove supernatant, and add 200 μl of secondary antibody diluted in FACS buffer, mix gently, and incubate for 30 min at RT. • 11. Wash cells by 1 ml of FACS buffer and pellet cells at 300×g for 5 min. • 12. Remove supernatant, add 200 μl of FACS buffer, and run samples on the flow cytometry. (2) qRT-PCR • 1. For qRT-PCR analysis of mRNA gene expression, RNA should be harvested from at least 2×10^6 cells. • 2. Harvest cells, add 350 μl of buffer RLT+1% (vol/vol) s-mercaptoethanol to the well, transfer the lysate to a 1.5 ml tube, and put it immediately on ice. • 3. Perform RNA extraction using the Tiangen Kit (DP430), and follow the manufacturer's protocol ‘Purification of total RNA from animal and human cells’. • 4. When the RNA extraction was completed, determine the RNA concentration using a Nanodrop instrument. • 5. Perform the first-strand cDNA synthesis reaction with 1 μg of RNA using the HiScript TM II Q RT SuperMIX for qPCR(+gDNA wiper) Kit (Vazyme, #R223-01) for RT-qPCR. Follow the manufacturer's ‘First-Strand cDNA Synthesis’ protocol. This reaction would yield a 20 μl product. • 6. Dilute the 10 μl cDNA product in 80 μl of nuclease-free water. • 7. Pipette the diluted cDNA product (1 μl), Sybr green master mix (5 μl, Transgen, #AQ131) and 0.95 μM reverse/forward primer mix (4 μl) into a 384-well PCR plate in triplicate, either manually or using an automated pipetting robot. The complete primer panel included the target genes and the housekeeping gene (RPL13A). In the analysis, also included a sample of undifferentiated hPSCs to determine the gene expression levels relative to the expression in hPSCs. • 8. Analyze the samples by running a quantitative PCR on the LightCycler 480 instrument using a 40× cycle two-step protocol with a 60° C., 60 sec annealing/elongation step and a 95° C., 30 sec denaturation step. The average CT values from the three technical replicates were used for calculations of relative gene expression using the ΔΔCT method. For each gene, calculate the FC of the differentiated samples relative to the undifferentiated control sample using the housekeeping gene for normalization. Next, calculate the average of the FC values on the basis of the housekeeping gene. (3) Immunocytochemical Analysis • 1. Cell fixation: Remove the medium from the cells and wash with PBS. Add 4% (wt/vol) PFA (e.g., 200 μl to a well in a 48-well plate) and incubate at room temperature (RT) for 15 min. after incubation, wash the cells three times in PBS. • 2. Blocking: Remove PBS from the wells and add blocking solution to the cells, add enough volume to cover the cells. Leave the cells in blocking solution for 1 h at RT. • 3. Primary antibodies incubation: Remove the blocking solution from the cells and add the primary antibody solutions (˜100 μl/cm^2). […]
For orientation: Flow cytometry measures light scatter and fluorescence of single cells or particles in a stream.

Assay [3] relates to imDAPs. The experiment in a line: imDAP maturation: cell morphology, adhesion and cell yield. The following applies: Example 13; maturation media supplemented with 10 μM Y27632; day 7; FIG. 8A. How it is done: imDAPs were produced according to the method described in CN201910169525.0, and expanded as described in Example 10. […] MM-H used in Example 11 contained the following components: Neurobasal™ medium, 1% (v/v) Glutamax, 0.5 mM Db-cAMP sodium salt, 200 μM ascorbic acid, 20 ng/ml BDNF, 20 ng/ml GDNF, 1 ng/ml TGF-β3, 10 μM DAPT, HhPLT (0.5%, 1%, 2%). MM-B used in Example 11 contained the following components: Neurobasal, 1% (v/v) Glutamax, 0.5 mM Db-cAMP sodium salt, 200 μM ascorbic acid, 20 ng/ml BDNF, 20 ng/ml GDNF, 1 ng/ml TGF-β3, 10 μM DAPT, 2% (v/v) B27 (50×) (as control). The above HhPLT was produced from hPLT as follows. The hPLT was centrifuged at 3000 g for 30 min at 4° C. to obtain the supernatant, which was heated to 56° C. for 30 min. The suspension was finally cooled down to 4° C. at least 5 min, and spun at 3000 g for 30 min at 4° C. to obtain the HhPLT supernatant. Aliquots were prepared and stored at −80° C. until use. The above Medium was changed every 3rd day. On day 7, the imDAPs at early maturation stage were dissociated enzymatically with 1× TrypLE, centrifuged at 250 g for 5 minutes.
imDAPs were produced according to the method described in CN201910169525.0, and expanded as described in Example 10. […] Medium was changed every 3rd day. On day 7, the imDAPs at early maturation stage were dissociated enzymatically with 1× TrypLE, centrifuged at 250 g for 5 minutes. Cells were collected for RT-qPCR analysis of EN1, LMX1A, FOXA2, NURR1, SOX6 and TH gene expression. The maturation medium used in Example 12 contained the following components: Neurobasal™ medium, 1% (v/v) Glutamax, 1% (v/v) HhPLT, 0.5 mM Db-cAMP sodium salt, 200 μM ascorbic acid, 20 ng/mL BDNF, 20 ng/mL GDNF, 1 ng/mL TGF-β3, 10 μM DAPT.
imDAPs were produced according to the method described in CN201910169525.0, and expanded as described in Example 10. […] Cells were collected and counted by Vi-cell cytometer. The cells were analyzed by RT-qPCR for EN1, LMX1A, FOXA2, NURR1, SOX6 and TH gene expression. […]

For the molecule `Cc1cnc(-c2cnc(NCCNc3ccc(C#N)cn3)nc2-c2ccc(Cl)cc2Cl)[nH]1` [CHIR99021], the “mDAP marker expression (EN1, LMX1A, FOXA2)” value in assay [1] is recorded as “allowed better maintenance of mDAP marker expression”.
`C[C@@H](N)[C@H]1CC[C@H](C(=O)Nc2ccncc2)CC1` [Y27632, (R)-(+)-trans-4-(1-aminoethyl)-N-(4-pyridyl) cyclohexanecarboxamide dihydrochloride]: the “percentage of Foxa2-expressing cells” value in assay [2] (10 μM Y27632 vs 5 μM Blebbistatin, VTN-coated, Day 6, FIG. 2) was “capable of improving the percentage of Foxa2-expressing cells than Blebbistatin”. In addition, the “percentage of Foxa2-expressing cells during passages” value in assay [2] (medium with Y27632) is recorded as “still decreased during passages”. Besides, the “cell adhesion and growth” value in assay [3] is given as “could promote cell adhesion at a certain degree”.
